Among the data in US20200385371A1 (Propellon Therapeutics Inc., priority 2017, published 2020) are Kd, EC50 and IC50 values, retold here.

Experiment [1] deals with T1, WDR5 (Homo sapiens, UniProt P61964). Description: Surface Plasmon Resonance (SPR) assay. It is filed as binding. Also noted: Full length WDR5 with an N-terminal His tag and C-terminal AviTag; His tag (N); made in house; host or cells: E. coli. The settings on record: read-out: SPR Kd. In a few lines: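 Full-length biotinylated WDR5 (N-His, C-AviTag, E. coli) captured (~3000 RU) on streptavidin SA chip; Biacore T200. HBS-EP pH 7.4 plus 5% DMSO running buffer, 40 μl/min.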

The test system of another experiment is MV4-11 cells. Description: Cell proliferation assay (ATPlite). It is filed as cell-based. The settings on record: Homo sapiens, 120 h; MV4-11 cells, five days; read-out: GI MV411 EC50. In a few lines: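 ATPlite luminescence after five days' culture (37° C, 5% CO2) gives viability. Compounds dosed in 10 concentrations up to 10 μM against DMSO; 1,000 cells/well seeded in Alpha-MEM/10% FBS.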
In general terms: Cellular ATP, detected with luciferase, serves as a proxy for viable cell number.

For experiment [2], the target named is T1, WDR5. Description: Fluorescence Polarization (FP) binding assay. In a few lines: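 Buffer was pH 6.5 sodium phosphate (80 mM) with 20 mM KCl and 0.008% Triton X-100; 9-Ala-FAM probe at 20 nM used 0.05 μM WDR5 and 480/540 nm polarization, H3 (1-15) probe at 30 nM used 0.3 μM WDR5 and 485/528 nm. Quadruplicate data were hyperbola-fitted to give Kdisp.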
A general note: In fluorescence polarisation assays a small probe gives low polarisation when free and higher when bound to something large.

The term Kd denotes the constant that tells how readily two partners part at equilibrium. By EC50 is commonly meant the midpoint of the concentration-response curve. The IC50 is the midpoint of a concentration-inhibition curve.

For `C[C@@H]1CN(c2ncc(-c3c(F)cc(N4CCN(C)[C@@H](C)C4)c(NC(=O)c4cn(C)c(=O)cc4C(F)(F)F)c3F)cn2)C[C@@H](C)O1` [Example 165, N-(3-(2-((2R,6R)-2,6-dimethylmorpholino)pyrimidin-5-yl)-6-((S)-3,4-dimethylpiperazin-1-yl)-2,4-difluorophenyl)-1-methyl-6-oxo-4-(trifluoromethyl)-1,6-dihydropyridine-3-carboxamide], the Kd at WDR5 [1] turned out to be 0.82 nM. Also, in the experiment on MV4-11 cells, the EC50 was found to be 169 nM. Also, at WDR5 [2], the concentration for half-maximal inhibition (IC50) worked out at 13.6 nM.

As for `C[C@@H]1CN(c2ncc(-c3c(F)cc(N4CCN(C)[C@@H](C)C4)c(NC(=O)c4c[nH]c(=O)cc4C(F)F)c3F)cn2)C[C@@H](C)O1` [Example 115, 4-(Difluoromethyl)-N-(3-(2-((2R,6R)-2,6-dimethylmorpholino)pyrimidin-5-yl)-6-((S)-3,4-dimethylpiperazin-1-yl)-2,4-difluorophenyl)-6-oxo-1,6-dihydropyridine-3-carboxamide], at WDR5 [1], the dissociation constant (Kd) amounted to 0.7 nM. Besides, the concentration giving a half-maximal response (EC50) in the experiment with MV4-11 cells came to 9.38 nM. The half-inhibitory concentration (IC50) at WDR5 [2] came to 13.8 nM.

Consider `C[C@@H]1CN(c2ncc(-c3c(F)cc(N4CCN(C)[C@@H](C)C4)c(NC(=O)c4c[nH]c(=O)cc4C(F)(F)F)c3F)cn2)C[C@H](C)O1` [Example 55, N-(3-(2-((2S,6R)-2,6-dimethylmorpholino)pyrimidin-5-yl)-6-((S)-3,4-dimethylpiperazin-1-yl)-2,4-difluorophenyl)-6-oxo-4-(trifluoromethyl)-1,6-dihydropyridine-3-carboxamide], for which the dissociation constant Kd at WDR5 [1] turned out to be 0.78 nM. Further, in the experiment on MV4-11 cells, the EC50 is 23.8 nM. The 50% inhibitory concentration (IC50) at WDR5 [2] is 14.8 nM.

With `C[C@@H]1CN(c2cc(F)c(-c3cnc(N4CCOCC4)nc3)c(F)c2NC(=O)c2c[nH]c(=O)cc2C(F)(F)F)C[C@H](C)N1C` [Example 2, N-(2,4-difluoro-3-(2-morpholinopyrimidin-5-yl)-6-((3S,5R)-3,4,5-trimethylpiperazin-1-yl)phenyl)-6-oxo-4-(trifluoromethyl)-1,6-dihydropyridine-3-carboxamide], the Kd on WDR5 [1] came to 3.68 nM. In the experiment with MV4-11 cells, the half-maximal effective concentration (EC50) was determined as 30.1 nM. Besides, the concentration for half-maximal inhibition (IC50) on WDR5 [2] was 16.3 nM.

In the case of `C[C@@H]1CN(c2nccc(-c3c(F)cc(N4CCN(C)[C@@H](C)C4)c(NC(=O)c4c[nH]c(=O)cc4C(F)(F)F)c3F)n2)C[C@H](C)O1` [Example 58, N-(3-(2-((2S,6R)-2,6-dimethylmorpholino)pyrimidin-4-yl)-6-((S)-3,4-dimethylpiperazin-1-yl)-2,4-difluorophenyl)-6-oxo-4-(trifluoromethyl)-1,6-dihydropyridine-3-carboxamide], on WDR5 [1], the Kd stood at 1.25 nM. The half-maximal effective concentration (EC50) with MV4-11 cells worked out at 99.1 nM. In addition, the IC50 on WDR5 [2] was found to be 15.1 nM.

For the compound `Cc1sc(-c2c(F)cc(N3CCN(C)[C@@H](C)C3)c(NC(=O)c3ccc(F)cc3C(F)F)c2F)nc1C(=O)N1CCCC1` [Example 153, (S)-2-(difluoromethyl)-N-(6-(3,4-dimethylpiperazin-1-yl)-2,4-difluoro-3-(5-methyl-4-(pyrrolidine-1-carbonyl)thiazol-2-yl)phenyl)-4-fluorobenzamide], on WDR5 [1], the equilibrium dissociation constant (Kd) is 1.18 nM. Further, the EC50 in the experiment on MV4-11 cells was 70.1 nM. Besides, the 50% inhibitory concentration (IC50) on WDR5 [2] is 5 nM.

With `C[C@H]1CN(c2cc(F)c(C3=CCN(c4ccnc(C#N)n4)CC3)c(F)c2NC(=O)c2c[nH]c(=O)cc2C(F)(F)F)CCN1C` [Example 112, (S)—N-(3-(1-(2-cyanopyrimidin-4-yl)-1,2,3,6-tetrahydropyridin-4-yl)-6-(3,4-dimethylpiperazin-1-yl)-2,4-difluorophenyl)-6-oxo-4-(trifluoromethyl)-1,6-dihydropyridine-3-carboxamide], on WDR5 [1], the Kd was 2.4 nM. Moreover, in the experiment on MV4-11 cells, the EC50 came to 35 nM. Moreover, the IC50 on WDR5 [2] stood at 15 nM.

In the case of `C[C@@H]1CN(c2cc(F)c(C3=CCCN(c4ncc(C#N)s4)C3)c(F)c2NC(=O)c2c[nH]c(=O)cc2C(F)(F)F)C[C@H](C)N1C` [Example 149, N-(3-(1-(5-cyanothiazol-2-yl)-1,2,5,6-tetrahydropyridin-3-yl)-2,4-difluoro-6-((3S,5R)-3,4,5-trimethylpiperazin-1-yl)phenyl)-6-oxo-4-(trifluoromethyl)-1,6-dihydropyridine-3-carboxamide], on WDR5 [1], the Kd is 1.8 nM. Moreover, the EC50 in the experiment on MV4-11 cells is 106 nM. Moreover, the concentration for half-maximal inhibition (IC50) at WDR5 [2] is 14.6 nM.

`C[C@@H]1CN(c2cc(F)c(-c3cnc(N4CCO[C@@H](C)C4)nc3)c(F)c2NC(=O)c2c[nH]c(=O)cc2C(F)(F)F)C[C@H](C)N1C` [Example 101, N-(2,4-difluoro-3-(2-((S)-2-methylmorpholino)pyrimidin-5-yl)-6-((3S,5R)-3,4,5-trimethylpiperazin-1-yl)phenyl)-6-oxo-4-(trifluoromethyl)-1,6-dihydropyridine-3-carboxamide]: at WDR5 [1], the dissociation constant Kd was 6.17 nM. The concentration for a half-maximal effect (EC50) in the experiment with MV4-11 cells is 11.8 nM. In addition, the IC50 at WDR5 [2] worked out at 21 nM.

Regarding `C[C@H]1CN(c2cc(F)c(-c3ccc(OC4CCOCC4)nc3)c(F)c2NC(=O)c2c[nH]c(=O)cc2C(F)(F)F)CCN1C` [Example 186, (S)—N-(6-(3,4-dimethylpiperazin-1-yl)-2,4-difluoro-3-(6-((tetrahydro-2H-pyran-4-yl)oxy)pyridin-3-yl)phenyl)-6-oxo-4-(trifluoromethyl)-1,6-dihydropyridine-3-carboxamide], on WDR5 [1], the dissociation constant Kd was determined as 0.8 nM. Further, the concentration giving a half-maximal response (EC50) in the experiment with MV4-11 cells came to 39.9 nM. The half-inhibitory concentration (IC50) on WDR5 [2] was 26.9 nM.

As to `C[C@H]1CN(c2cc(F)c(-c3ccc(N4CCOCC4)nc3)c(F)c2NC(=O)c2ccc(F)cc2C(F)(F)F)CCN1C` [Example 174, (S)—N-(6-(3,4-dimethylpiperazin-1-yl)-2,4-difluoro-3-(6-morpholinopyridin-3-yl)phenyl)-4-fluoro-2-(trifluoromethyl)benzamide], the Kd at WDR5 [1] was determined as 1.71 nM. Further, in the experiment on MV4-11 cells, the half-maximal effective concentration (EC50) came out at 191 nM. For the same compound, the IC50 at WDR5 [2] came out at 19.5 nM.

Take `CC(C)OC(=O)N1CC=C(c2c(F)cc(N3CCN(C)[C@@H](C)C3)c(NC(=O)c3c[nH]c(=O)cc3C(F)F)c2F)CC1` [Example 34, Isopropyl (S)-4-(3-(4-(difluoromethyl)-6-oxo-1,6-dihydropyridine-3-carboxamido)-4-(3,4-dimethylpiperazin-1-yl)-2,6-difluorophenyl)-3,6-dihydropyridine-1(2H)-carboxylate]: the Kd on WDR5 [1] was 2.02 nM. In addition, the EC50 with MV4-11 cells turned out to be 44.4 nM. Also, the IC50 at WDR5 [2] came to 22 nM.

As for `C[C@@H]1CN(c2ccc(-c3c(F)cc(N4C[C@@H](C)N(C)[C@@H](C)C4)c(NC(=O)c4c[nH]c(=O)cc4C(F)F)c3F)cn2)CCO1` [Example 190, N-(2,4-difluoro-3-(6-((R)-2-methylmorpholino)pyridin-3-yl)-6-((3S,5R)-3,4,5-trimethylpiperazin-1-yl)phenyl)-4-(difluoromethyl)-6-oxo-1,6-dihydropyridine-3-carboxamide], the Kd on WDR5 [1] was 0.96 nM. Also, in the experiment on MV4-11 cells, the EC50 was 48.6 nM. Further, the 50% inhibitory concentration (IC50) at WDR5 [2] is 12.8 nM.

Take `C[C@H]1CN(c2cc(F)c(C3=CCN(c4ncc(C#N)s4)CC3)c(F)c2NC(=O)c2c[nH]c(=O)cc2C(F)F)CCN1C` [Example 97, (S)—N-(3-(1-(5-cyanothiazol-2-yl)-1,2,3,6-tetrahydropyridin-4-yl)-6-(3,4-dimethylpiperazin-1-yl)-2,4-difluorophenyl)-4-(difluoromethyl)-6-oxo-1,6-dihydropyridine-3-carboxamide]: at WDR5 [1], the dissociation constant Kd is 0.78 nM. In addition, in the experiment with MV4-11 cells, the concentration for a half-maximal effect (EC50) was found to be 138 nM. Besides, the 50% inhibitory concentration (IC50) on WDR5 [2] stood at 13.6 nM.

With `C[C@@H]1CN(c2ccc(-c3c(F)cc(N4CCN(C)[C@@H](C)C4)c(NC(=O)c4ccc(F)cc4C(F)(F)F)c3F)cn2)C[C@H](C)O1` [Example 176, N-(3-(6-((2S,6R)-2,6-dimethylmorpholino)pyridin-3-yl)-6-((S)-3,4-dimethylpiperazin-1-yl)-2,4-difluorophenyl)-4-fluoro-2-(trifluoromethyl)benzamide], on WDR5 [1], the Kd came out at 1.46 nM. The EC50 with MV4-11 cells was determined as 139 nM. In addition, the half-maximal inhibitory concentration (IC50) at WDR5 [2] was 19.8 nM.

Take `COc1cc(N2CC=C(c3c(F)cc(N4CCN(C)[C@@H](C)C4)c(NC(=O)c4c[nH]c(=O)cc4C(F)F)c3F)CC2)ncn1` [Example 67, (S)-4-(difluoromethyl)-N-(6-(3,4-dimethylpiperazin-1-yl)-2,4-difluoro-3-(1-(6-methoxypyrimidin-4-yl)-1,2,3,6-tetrahydropyridin-4-yl)phenyl)-6-oxo-1,6-dihydropyridine-3-carboxamide]: the Kd at WDR5 [1] amounted to 0.97 nM. Besides, in the experiment with MV4-11 cells, the EC50 was 101 nM. For the same compound, the half-maximal inhibitory concentration (IC50) at WDR5 [2] came out at 19.7 nM.

Consider `C[C@H]1CN(c2ccc(-c3c(F)cc(N4CCN(C)[C@@H](C)C4)c(NC(=O)c4ccc(F)cc4C(F)F)c3F)cn2)CCO1` [Example 179, 2-(Difluoromethyl)-N-(6-((S)-3,4-dimethylpiperazin-1-yl)-2,4-difluoro-3-(6-((S)-2-methylmorpholino)pyridin-3-yl)phenyl)-4-fluorobenzamide], for which the dissociation constant (Kd) on WDR5 [1] came out at 1.59 nM. The EC50 in the experiment with MV4-11 cells is 141 nM. The IC50 at WDR5 [2] turned out to be 20.1 nM.
